These results are taken from PubChem BioAssay AID2060616 (Molecular Pharmacology Branch, DTP, NCI, 2025).

The experiment concerns 377384-186-R-J1-PDC complex spheroid viability. Briefly: Anticancer human tumor 377384-186-R-J1-PDC patient-derived pancreatic carcinoma cell line growth inhibition [CLK]. Conditions: for viability, T/C: stronger effect = lower value; for pIC50: curve of compound. An excerpt:
A high-throughput screen of multi-cell type tumor spheroids was designed to identify active combinations of […] and targeted small molecules. Complex spheroids include a stromal component modeled by human endothelial cells (HUVEC) and fibroblasts modeled by human mesenchymal stem cells (MSCs). The concentration ranges selected for each drug and investigational agent were based upon clinically achievable concentrations if the clinical Cmax of the agent was known.
Compounds. The drugs and investigational agents: cirtuvivint (SM08502; NSC835563), CC-671 (NSC850746), vemurafenib (NSC761431), tapotoclax (NSC804041), sotorasib (NSC818433), adagrasib (NSC831453), MRTX-1133 (NSC836407), BAY2416964 (NSC825713), copanlisib (NSC816437), inavolisib (NSC800729), abemaciclib (NSC768073), osimertinib (NSC779217), entinostat (NSC756642), eltanexor (KPT-8602, NSC794443), venetoclax (NSC766270), ceralasertib (NSC777638), bortezomib (NSC756655), olaparib (NSC753686), talazoparib (NSC767125), alisertib (NSC759677), peposertib (NSC802822), gemcitabine (NSC613327), 5-fluorouracil (NSC19893), SN-38 (NSC673596), oxaliplatin (NSC266046), paclitaxel (NSC125973), and doxorubicin (NSC123127), were obtained from the National Cancer Institute (NCI) Developmental Therapeutics Program Chemical Repository. The FDA-approved anticancer drug set is available from the Developmental Therapeutics Program at https://dtp.cancer.gov/organization/dscb/obtaining/available plates.htm. […] The stock solutions were prepared in dimethyl sulfoxide (DMSO, Sigma-Aldrich, St. Louis, MO, cat. D2650), except for the platinum complexes which were prepared in saline (Quality Biological, Gaithersburg, MD, cat. 114-055-101), at 800-fold the tested concentration and stored at -70 degrees C prior to their use. All drugs and investigational agents were tested over a range starting from a high concentration at or near the clinical Cmax and decreasing in half-log increments. If the clinical Cmax for an agent had not been determined, the highest concentration tested was 10 microM.
Cell Culture. All cells were maintained in an incubator at 37 degrees C and 5% CO2 with 95% humidity. The PDC lines were cultured according to standard operating procedures established by the NCI PDMR. Briefly, all PDCs were thawed and cultured in Matrigel-coated flasks prepared with a working solution of 1X Ham's F-12 nutrient mix, without supplementation (Invitrogen, Waltham, MA, cat. 11765054), 100 U/mL penicillin-streptomycin (Invitrogen, cat. 15140122), and 2.5% Matrigel (Corning Inc., Corning, NY, cat. 354248) for the first three passages. The 947758-054-R-J2-PDC line was cultured in 6B/Colon 1A media, which includes advanced DMEM/F-12 (Thermo Fisher Scientific, cat. 12634028), 10 mM HEPES (Thermo Fisher Scientific, cat. 15630080), 1X GlutaMAX supplement (Thermo Fisher Scientific, cat. 35050061), 0.1 mg/mL primocin (InvivoGen, cat. ant-pm-2), 10% defined fetal bovine serum, heat inactivated (HyClone Laboratories Inc., cat. SH30070.03HI), 1.25 mM N-Acetyl-L-cysteine (Sigma-Aldrich, cat. A9165), 10 mM nicotinamide (Sigma-Aldrich, cat. N0636), 1X B-27 supplement (Thermo Fisher Scientific, cat. 17504044), 1X N-2 supplement (Thermo Fisher Scientific, cat. 17502048), and 10 microM Y-27632 dihydrochloride (Tocris Bioscience, cat. 1254). The 876862-298-R-J1-PDC was cultured in 6E media, which includes all 6B/Colon 1A media components plus 50% L-WRN conditioned media (ATCC, cat. CRL-3276), 50 ng/mL recombinant human EGF recombinant protein (hEGF; Thermo Fisher Scientific, cat. PHG0311), 10 ng/mL recombinant human fibroblast growth factor 10 (hGFG-10; PeproTech, cat. 100-26), 1 ng/mL recombinant human fibroblast growth factor 2 (hFGF-2; PeproTech, cat. 100-18B), and 1 µM prostaglandin E2 (PGE2; Tocris, cat. 2296). The 227483-062-R1-J1-PDC line was cultured in Panc media, containing all 6E components except hFGF-2, with the addition of 500 nM SB-431542 (Selleckchem, cat. S1067) and 10 nM gastrin (Tocris, cat. 3006). […]

pIC50: −log10 of the molar value. Values joined by “and” are separate entries in the source; they are usually repeats but may differ in a detail not shown here. Identical values can stand only once.
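Note: spheroids exposed to agents for 7 days before reading.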
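Throughout, for viability, T/C: luminescence signal used as a stand-in for viable cells.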

What is called viability, T/C is the ratio of treated to control. The term pIC50 denotes the IC50 on a negative log10 scale, so that one unit is a factor of ten. With `C#Cc1c(F)ccc2cc(O)cc(-c3ncc4c(N5CC6CCC(C5)N6)nc(OCC56CCCN5CC(F)C6)nc4c3F)c12` (centres undefined), the negative-log IC50 (pIC50) is above 7.50. Besides, the viability, T/C (compound 0.0316 µM) was 21.7% and 21.4%. The viability, T/C (compound 0.1 µM) was 9.43% and 10.6%. For the same compound, the viability, T/C (compound 0.316 µM) is 5.31% and 3.97%. The viability, T/C (compound 1 µM) is 4.69% and 4.41%. Also, the viability, T/C (compound 3.16 µM) was 2.25% and 2.02%. Further, the viability, T/C (compound 10 µM) is 1.85% and 1.77%.

Turning to `C=C(F)C(=O)N1CCN(c2nc(OCC3CCCN3C)nc3c2CCN(c2cccc4cccc(Cl)c24)C3)CC1CC#N` (centres undefined), the pIC50 is 5.78 and 5.76. Besides, the viability, T/C (compound 0.0316 µM) was 88.4% and 94.1%. For the same compound, the viability, T/C (compound 0.1 µM) was 97.7% and 89.9%. For the same compound, the viability, T/C (compound 0.316 µM) is 86.1% and 91.8%. Besides, the viability, T/C (compound 1 µM) was 73.6% and 70.8%. The viability, T/C (compound 3.16 µM) is 21.3% and 26.5%. Further, for the setting “compound 10 µM”, the viability, T/C is 0.31% and 0.54%.

Consider `C=CC(=O)N1CCN(c2nc(=O)n(-c3c(C)ccnc3C(C)C)c3nc(-c4c(O)cccc4F)c(F)cc23)C(C)C1` (centres undefined), for which the pIC50 was below 5.00. Besides, under “compound 0.0316 µM”, the viability, T/C was 108% and 87.8%. Besides, the viability, T/C (compound 0.1 µM) is 83.9% and 127%. Also, the viability, T/C (compound 0.316 µM) was 100% and 101%. Besides, the viability, T/C (compound 1 µM) is 119% and 105%. The viability, T/C (compound 3.16 µM) is 110% and 117%. The viability, T/C (compound 10 µM) is 84.3% and 90.5%.

On to `CC(=O)O[C@H]1C(=O)[C@@]2(C)[C@H]([C@H](OC(=O)c3ccccc3)[C@]3(O)C[C@H](OC(=O)[C@H](O)[C@@H](NC(=O)c4ccccc4)c4ccccc4)C(C)=C1C3(C)C)[C@]1(OC(C)=O)CO[C@@H]1C[C@@H]2O`, for which the pIC50 was above 7.50. Besides, for the setting “compound 0.0316 µM”, the viability, T/C was 7.92% and 6.8%. Moreover, the viability, T/C (compound 0.1 µM) was 9.5% and 7.41%. Besides, the viability, T/C (compound 0.316 µM) is 10.5% and 9.32%. Moreover, the viability, T/C (compound 1 µM) is 8.91% and 8.31%. Besides, the viability, T/C (compound 3.16 µM) is 10.3% and 8.38%. The viability, T/C (compound 10 µM) is 14.3% and 11.1%.

For `CC(CO)NC(=O)c1cc(-c2ccc(Cl)cc2)nn(-c2cnn(C)c2)c1=O` (centres undefined), the negative-log IC50 (pIC50) was 5.14 and 5.07. Under “compound 0.0316 µM”, the viability, T/C is 94.9% and 112%. The viability, T/C (compound 0.1 µM) is 101% and 85.5%. For the setting “compound 0.316 µM”, the viability, T/C is 105% and 103%. Also, the viability, T/C (compound 1 µM) is 102% and 82.1%. Further, the viability, T/C (compound 3.16 µM) is 77.7% and 70.1%. In addition, the viability, T/C (compound 10 µM) was 39.5% and 45.9%.

Take `CC(Nc1ccc2c(c1)OCCn1cc(N3C(=O)OCC3C(F)F)nc1-2)C(N)=O` (centres undefined): the viability, T/C (compound 0.0316 µM) is 86.6% and 85.8%; the viability, T/C (compound 0.1 µM) was 90.3% and 69.1%; the viability, T/C (compound 0.316 µM) is 59.9% and 53%; the viability, T/C (compound 1 µM) is 56.3% and 54%; the viability, T/C (compound 3.16 µM) is 49.6% and 35.9%; the viability, T/C (compound 10 µM) was 43.6% and 36.5%.

As for `CC1(C)CCC(CN2CCN(c3ccc(C(=O)NS(=O)(=O)c4ccc(NCC5CCOCC5)c([N+](=O)[O-])c4)c(Oc4cnc5[nH]ccc5c4)c3)CC2)=C(c2ccc(Cl)cc2)C1`, the pIC50 was 5.28 and < 5.00. Besides, under “compound 0.0316 µM”, the viability, T/C was 83.6% and 106%. In addition, the viability, T/C (compound 0.1 µM) was 86.1% and 92.5%. The viability, T/C (compound 0.316 µM) was 92.9% and 90.5%. The viability, T/C (compound 1 µM) was 99% and 97%. Moreover, the viability, T/C (compound 3.16 µM) is 82.7% and 83.9%.

Consider `CC1COCCN1c1cc(C2(S(C)(=N)=O)CC2)nc(-c2ccnc3[nH]ccc23)n1` (centres undefined), for which the negative-log IC50 (pIC50) was 5.58 and 5.69. For the same compound, the viability, T/C (compound 0.0316 µM) was 85.7% and 90.6%. Also, under “compound 0.1 µM”, the viability, T/C is 108% and 109%. Further, for the setting “compound 0.316 µM”, the viability, T/C was 83.9% and 91.1%. Besides, the viability, T/C (compound 1 µM) is 82.9% and 74.7%. Besides, the viability, T/C (compound 3.16 µM) is 44% and 35.3%. Moreover, the viability, T/C (compound 10 µM) is 17.6% and 14.9%.
